Experimental data from paper PMC4957513, “Functional Characterization of a Hexose Transporter from Root Endophyte Piriformospora indica” (Frontiers in Microbiology, 2016).

Key:
PiHXT5 [1] = biological target: T1, PiHXT5 (Serendipita indica, UniProt G4TIR7); experiment: competition of […]-glucose uptake in yeast EBY.VW4000; assay type: cell-based; conditions: 25 μM 14C-glucose, five-fold excess of unlabelled sugar, 1 min, 30 °C; intact cells
T1 construct: gene PIIN_05137

PiHXT5 [2] = biological target: T1, PiHXT5; experiment: […]-glucose uptake in yeast EBY.VW4000, Michaelis-Menten fit; assay type: cell-based; conditions: pH 6.5, 50 mM potassium phosphate, 0.6 M sorbitol; intact cells; labelled compound; H+ symport; read-out: apparent Km

T1 sequence (G4TIR7 entry or part of it): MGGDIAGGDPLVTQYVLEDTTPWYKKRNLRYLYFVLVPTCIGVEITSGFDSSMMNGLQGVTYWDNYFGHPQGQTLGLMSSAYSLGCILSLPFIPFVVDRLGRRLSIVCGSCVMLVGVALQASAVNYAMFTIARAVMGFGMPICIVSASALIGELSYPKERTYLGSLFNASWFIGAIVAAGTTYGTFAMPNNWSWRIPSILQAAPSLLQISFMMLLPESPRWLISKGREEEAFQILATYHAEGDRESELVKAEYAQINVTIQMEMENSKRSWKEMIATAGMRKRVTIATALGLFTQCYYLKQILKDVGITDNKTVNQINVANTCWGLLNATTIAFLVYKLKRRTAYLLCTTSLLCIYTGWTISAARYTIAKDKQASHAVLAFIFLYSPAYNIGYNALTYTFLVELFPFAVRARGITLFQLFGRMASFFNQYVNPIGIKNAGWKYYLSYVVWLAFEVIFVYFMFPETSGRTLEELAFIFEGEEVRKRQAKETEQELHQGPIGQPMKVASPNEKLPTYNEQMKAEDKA

Km (PiHXT5 [2]) [µM] | Structure (SMILES) | % of control 14C-glucose uptake at five-fold excess (PiHXT5 [1])
– | OC[C@H]1OC(O)[C@@H](O)[C@@H](O)[C@@H]1O (stereo partly drawn) [D-mannose] | PiHXT5 is able to transport Glc, Fru, Xyl, Man, and Gal with decreasing affinity
– | OC1OC[C@@H](O)[C@H](O)[C@H]1O (stereo partly drawn) [D-xylose] | PiHXT5 is able to transport Glc, Fru, Xyl, Man, and Gal with decreasing affinity
– | OC[C@H]1OC(O)[C@H](O)[C@@H](O)[C@H]1O (stereo partly drawn) [D-galactose] | PiHXT5 is able to transport Glc, Fru, Xyl, Man, and Gal with decreasing affinity
2560 ± 180 | OC[C@H]1OC(O)[C@H](O)[C@@H](O)[C@@H]1O (stereo partly drawn) [D-glucose] | –
– | OCC1(O)OC[C@@H](O)[C@@H](O)[C@@H]1O (stereo partly drawn) [D-fructose] | PiHXT5 is able to transport Glc, Fru, Xyl, Man, and Gal with decreasing affinity
